Laboratory results from patent US20170056351A1, “COMPOSITION FOR INDUCING TUMOR IMMUNITY” (UNIVERSITY OF OCCUPATIONAL AND ENVIRONMENTAL HEALTH, JAPAN, priority 2014, published 2017).

Tested on: Iba1-positive macrophages in subcutaneously transplanted 9L gliosarcoma
Experiment: Pathologic examination of subcutaneous tumor, Iba1 staining of macrophages and microdensitometry
Type: in vivo, rat
Description: After completion of the immobilization, all of the tumor samples were cut at the center of tumor in the longitudinal direction. The obtained fragments were each stained with hematoxylin and eosin (HE), and were also stained with Iba1 or CD68 for detection of macrophages. Briefly, the sample was bathed in water for pre-treatment (40 minutes, 95° C.), and the deparaffinized portion was then washed with KN Buffer (KN-09002; Pathology Institute Corp, Toyama, Japan). Subsequently, the fragment was incubated with goat polyclonal anti-Iba1 (1:3000, ab107159, Abcam) or anti-CD68 antibody (1:100, MCA-341R, AbD) for 30 minutes, and were further washed with KN Buffer. Subsequently, regarding Iba1, the fragment was incubated with Simple Stain™ MAX-PO (G) (H1301; Nichirei Bioscience Inc. Japan) for 30 minutes. Regarding CD68, the fragment was incubated with Envision+Dual Link HRP-label/polymer reagent (Dako: K4061) for 30 minutes. The resultant was finally washed with KN Buffer, and was then treated with diaminobenzidine (DAB) for 10 minutes for color development. […]
Moreover, the procedures of the previous study (Prall F, Maletzki C, Linnebacher M: Microdensitometry of osteopontin as an immunohistochemical prognostic biomarker in colorectal carcinoma tissue microarrays: potential and limitations of the method in ‘biomarker pathology’. Histopathology 61: 823-32, 2012.) were partially modified, and using public domain software, Image J (Wayne Rasband, National Institute of Mental Health, Bethesda, Md.), microdensitometry was carried out regarding immunohistochemical quantitative evaluation of Iba1 on a digital photomicrograph. […] In order to quantify the color signals of immunohistochemical DAB of Iba1, the image data of all samples were transferred into Image J, and were then converted to 8-bit grayscale images. […] The present inventors have defined the mean gray value (MGV) of all of the tumor samples in a control group (n=5) as a representative value, and the relative intensities of MGVs in other groups to the aforementioned representative value were then calculated.

**Q.** For `NCC(=O)CCC(=O)O` [ALA, 5-aminolevulinic acid], which “mean gray value (MGV) of Iba1, microdensitometry, versus other groups” value (ALA multiple-dose + ionizing radiation multiple-dose group, p<0.05 vs RT group, p<0.01 vs ALA group) is on record?
**A.** Its value is “significantly higher”.

**Q.** What about the “Iba1-positive macrophages in subcutaneous tumor” value (ALA multiple-dose administration group, 16th day after treatment) of the same compound?
**A.** The value was “mainly gathered to the surface of the subcutaneous tumor”.

**Q.** What about the “gathering of Iba1-positive macrophages to surface and inside of subcutaneous tumor” value (ionizing radiation combined with ALA administration, 16th day after treatment) of the same compound?
**A.** Its value is “significantly observed”.
